The source of these data is patent publication US20070122870A1, “Method for water testing and devices and kit of components for use in such a method” (priority 2003, published 2007).

Assay [1] has as its system V. natriegens. As to the kind of experiment: Respiration (CTC fluorescence) in closed cultures. The class given is cell-based, Vibrio natriegens. The following applies: closed culture; for respiration: compared to the non-toxic control. How it is done:
(vi) The application of the redox dye CTC (5-cyano-2,3-ditolyl tetrazolium chloride, Polysciences Europe) was developed to direct fluorimetric determination of respiration in bacterial suspensions. […] Traditionally, CTC has been used with flow cytometry and epifluorescence microscopy, combined with DAPI to counterstain total cells. However, its application to bacterioplankton remains controversial.
An exponentially growing culture of V. natrigens was incubated with the redox dye CTC following the standard procedure (2.0 mM final concentration, 4 h at 28° C.) and samples were taken every 30 minutes to count total cells and CTC+ cells in the microscope.
(§1) (viii) The effect of a range of contaminants on growth dynamics and sub-cellular bioindicators in closed cultures of V. natriegens was studied: […]

Assay [2] has as its system V. natriegens. As to the kind of experiment: Growth dynamics (optical density, cell concentration) in closed cultures. Type of assay: cell-based, Vibrio natriegens. To be noted: closed culture; for bacterial growth (growth curve, growth rate, optical density, cell concentration): compared to the non-toxic control. The source says:
(ii) Sterile, 12-ml capacity, screw-capped, clear polystyrene test tubes (Starstedt) were selected as the most appropriate closed system for use in ECOALERT experiments. These test tubes are ideal for short-term cell culturing where aeration is not critical. Also, the optical density of the culture can be read as often as desired, by simply inserting the same tube in a spectrophotometer, thus avoiding contamination risks and reducing analysis time.
(viii) The effect of a range of contaminants on growth dynamics and sub-cellular bioindicators in closed cultures of V. natriegens was studied:
(xi) The sensitivity of cultures of V. natriegens to a range of contaminants in closed laboratory experimental systems was studied at specified toxic concentrations and time scales.

Assay [3] concerns V. natriegens. As to the kind of experiment: LIVE/DEAD BacLight membrane integrity, closed cultures. Type of assay: cell-based, Vibrio natriegens. The following applies: closed culture. Here is the method: (§2) (viii) Two ready-to-use commercial kits to assess cell viability (ProCheck™ Cell Viability Assay) and membrane integrity (LIVE/DEAD® BacLight™ Bacterial Viability Kit) were tested and adapted for using during ECOALERT experiments.
(§3) ProCheck™ is designed to measure the amount of viable, metabolising cells in a sample, and LIVE/DEAD® BacLight™ distinguish live and dead bacteria As a preliminary test, the two kits were tested in a volumetric series of mixtures of two bacterial types of V. natriegens: live, exponentially growing bacteria and dead bacteria killed by autoclaving an aliquot of the same culture. The colorimetric signal indicating cell viability (ProCheck™) and the fluorimetric signal indicating membrane integrity (LIVE/DEAD® BacLight™) increased linearly with the proportion of live bacteria in the mixture.

The subject of assay [4] is V. natriegens. Put plainly: DNA (thymidine uptake) and protein (leucine uptake) synthesis in closed cultures. To be noted: closed culture; for DNA synthesis / protein synthesis: compared to the control. Type of assay: cell-based, Vibrio natriegens. Here is the method:
(iv) The application of the 3H-leucine method of Smith and Azam (Marine Microbial. Food Webs. 6(2), 107-114, 1992) was developed and also used with 3H-thymidine to estimate bacterial production. The synthesis of DNA (thymidine uptake) and protein (leucine uptake) was studied in V. natriegens closed cultures. In non-toxic cultures the uptake of both radiotracers by the bacteria reaches maximal values between 4 and 8 hours of the experiment, coinciding with the log-phase of the growth curve.
as §1

Assay [5] has as its system caged Pseudomonas sp. As to the kind of experiment: Growth limitation (OD) of caged bacteria in dialysis tubes. The class given is cell-based. How it is done: On the night before the experiment, a number of 2-litre HDPE bottles, one bottle per toxicity treatment, were filled with water (3/4 seawater 1-μm filtered, 1/4 distilled water). The bottles were kept at 15° C. stirring at low speed.
The dialysis tubes, which are supplied soaked in sodium azide, were rinsed throughly, refilled with distilled water and UV-irradiated for 10 minutes to ensure sterility.
Also the night before, a fresh culture of bacteria was inoculated from the original stock in liquid diluted medium.
Before starting the toxicity assay, the bottles were spiked with the contaminant and buffered to pH 7.3. At the same time, a fresh volume of diluted medium was inoculated from the culture grown overnight and kept for ˜2 hours at 15° C. until the growth rate picked up again and OD540 approached 0.005.
Then, the dialysis tubes were emptied of the water and four of them topped up with the bacterial culture, plus one blank tube with medium-only (no bacteria), and placed into the bottle to start the assay. Each bottle could hold 5 dialysis tubes floating upright.
The stirring was kept low and at time intervals samples were removed from the tubes with sterile pipettes to measure the different bacterial indicators.
(ix) The growth dynamics of toxic cultures of caged Pseudomonas sp. were studied. The effect of toxicity on the growth of caged bacteria was studied in several assays where different concentrations of contaminants were added to the water of the tanks.

For assay [6], the system named is caged Pseudomonas sp. Put plainly: Respiration indicator (CTC) in toxic caged cultures. To be noted: caged toxicity assays. Type of assay: cell-based. An excerpt: Respiration. Respiration was estimated with the redox dye CTC (Polysciences) as values of fluorescent intracellular formazan.
(§4) (x) Bacterial sub-cellular indicators (DNA, respiration, membrane integrity and viability) were studied in toxic cultures of caged Pseudomonas sp.

Another assay concerns Pseudomonas. As to the kind of experiment: ECOALERT deployment in controlled flow-through system, respiration (CTC fluorescence). To be noted: after 72 hours; 50 ppb BPH, 5 ppb TBDE; 7.5° C. The class given is cell-based. The source says:
The experimental setup involved 16 tanks (4 animal species 4 exposure treatments) connected in a flow-through system with a direct intake of seawater from 80 m depth in the Stavanger fjord, outside the laboratory. For each one of the test animals, three tanks were connected to a chemostate system which maintained a constant concentration of each of the following chemicals: 50 ppb bisphenol A (BPH), 50 ppb diallyl phthalate (DAP), and 5 ppb tetrabromodiphenylether or PBDE-47 (TBDE). The forth tank had no chemical supply and was used as control. ECOALERT was deployed in the mussel tanks, one basket per tank. The water conditions in all the tanks were: 7.5° C. temperature, pH 7.78 and […].
Each deploying basket of ECOALERT was equipped with 3 dialysis tubes with Pseudomonas, 3 tubes filled with Vibrio natriegens and 3 dialysis tubes with medium-only without cells. Each dialysis tube was repeatedly sampled at 1, 24, 48 and 72 hours. Due to the low temperature of the water (7.5° C.) a low bacterial growth rate was expected and because of that the duration of the experiment was expanded to 72 hours. At every time-point, growth and respiration activity of the bacteria were measured as turbidity and CTC fluorescence respectively using the handheld CTC fluorometer/turbidimeter. […]

Assay [7] deals with caged Pseudomonas sp. As to the kind of experiment: Bacterial DNA indicator (PicoGreen) in toxic caged cultures. The following applies: caged toxicity assays. Type of assay: cell-based.
Source text: Bacterial DNA. To improve the detection of bacterial DNA in culture samples, the PicoGreen double-strand DNA (dsDNA) reagent (Molecular Probes) was used instead of DAPI. PicoGreen reagent is more sensitive to small changes in the DNA content of bacterial cultures, resulting in a good correlation with OD.
as §4

The subject of assay [8] is V. natriegens. As to the kind of experiment: ProCheck cell viability assay, closed cultures. The class given is cell-based, Vibrio natriegens. To be noted: closed culture, compared with the non-toxic control. Here is the method:
as §2, §3

A further assay relates to bacterial culture. Put plainly: ECOALERT assay, ratio respiration/growth (CTC/TRB). The class given is cell-based. The following applies: compared to the control. How it is done: Two bacterial endpoints were chosen based on the results from Example 2: growth and respiration. Growth is an endpoint at population level and is estimated by measuring in vivo optical density (OD) or turbidity (TRB). Respiration is an endpoint at subcellular level and is measured by the fluorescence emitted by actively respiring bacteria, using the CTC redox dye.
To assess OD, TRB and CTC as indicators of toxicity a series of ECOALERT assays were carried out on a wide range of chemical substances, with special attention to common pharmaceuticals but also including some contaminants cited in the OSPAR list for priority action (OSPAR 2000). The concentrations tested were based on toxicological and environmental levels, where this information was available.
Even when no clear effect could be observed in the CTC indicator alone, there was an advantage in using the bacterial indicators OD (or TRB) and CTC simultaneously. That was because it was possible to use the ratio respiration/growth, which is an estimator of the proportion of respiring or active bacteria in the population, as an indirect indicator of the health of the population.

Setting [9] is: compared with the non-toxic control.

“Also recorded” adds a separate entry of the source. Bounds are passed on as bounds.

For the compound “dodecylbenzensulfonic acid sodium salt [detergent]”, the respiration result in the assay on V. natriegens [1] (sodium salt) was “contrary to that of the non-toxic control; also recorded: seems to enhance”. Also, the reduction in respiration in the assay with V. natriegens [1] (instant) stood at 10 fold. Moreover, the size of bacteria result with V. natriegens [2] (compared to control bacteria, sodium salt) is listed as “progressively reduced their size; also recorded: reduces”. The “bacterial growth (growth curve, growth rate, optical density, cell concentration)” value (from here on “bacterial growth”) in the assay with V. natriegens [2] (sodium salt) is given as “increased over the control; also recorded: seems to enhance”. In addition, the “reduction in bacterial numbers” value in the assay with V. natriegens [2] (instant) came to 10 fold. Besides, the “membrane integrity (LIVE/DEAD BacLight)” value in the assay with V. natriegens [3] (setting [9]) is reported as “progressive damage of cellular membranes with time”; in the assay with V. natriegens [3] (stationary phase), “deleterious effect on membranes”. Besides, the DNA synthesis entry in the assay with V. natriegens [4] was “increased slightly over the control”. Also, the protein synthesis result in the assay with V. natriegens [4] (sodium salt) is given as “inhibited but seems to recover after 48 h”.

In the case of `[Cd]` [Cd, cadmium], the growth limitation in the assay on caged Pseudomonas sp. [5] (20 mg Cd/L, after 4 hours of exposure) was 59%; with caged Pseudomonas sp. [5] (lower Cd treatments), “did not cause any clear limitation of bacterial growth”. Also, the “respiration as indicator of toxicity” value with caged Pseudomonas sp. [6] is reported as “most sensitive indicator of toxicity”.

Take `CC(C)(c1ccc(O)cc1)c1ccc(O)cc1` [BPH, bisphenol A]: the bacterial respiration result in the assay on Pseudomonas is “clear negative effect; also recorded: had an impact on bacteria”.

On to `CC(C)(c1cc(Br)c(O)c(Br)c1)c1cc(Br)c(O)c(Br)c1` [TBBA], for which the “increase in cellular respiration (ratio respiration/optical density)” value with V. natriegens [1] (average) is on record as “more than 90%”. Moreover, in the assay on V. natriegens [1], the respiration result was “sudden and important increase in respiration; also recorded: notable increase of respiration”. Further, the “membrane integrity (LIVE/DEAD BacLight)” value with V. natriegens [3] (stationary phase) was “membrane damage”.

With `Brc1cccc(Oc2ccc(Br)c(Br)c2Br)c1` [TBDE, tetrabromodiphenylether], the bacterial respiration result with Pseudomonas is given as “possible positive effect”.

The compound `[Zn]` [zinc] yielded a growth limitation with caged Pseudomonas sp. [5] (50 mg/L, after 4 h) of 51%. Further, the “toxicity / effect on growth” value in the assay on caged Pseudomonas sp. [5] (first experiment, doses between 0.05-5 mg/L) is given as “No significant toxicity; also recorded: positive effect in most of the treatments”. Moreover, in the assay on caged Pseudomonas sp. [7], the “DNA as indicator of toxicity” value is reported as “sensitive indicator of toxicity”.

`Cl[C@H]1[C@H](Cl)[C@@H](Cl)[C@@H](Cl)[C@H](Cl)[C@H]1Cl` [Lindane]: the respiration result in the assay with V. natriegens [1] is “transient, rather subtle stimulation; also recorded: transient, faint stimulation”. Besides, the “bacterial growth” value in the assay with V. natriegens [2] was “transient, rather subtle stimulation; also recorded: transient, faint stimulation”.

Take `[Cu]` [Cu, copper]: the respiration result with V. natriegens [1] was “very conspicuous and instantaneous reduction”; in the assay on V. natriegens [1] (listed as copper), “nearly ceased”. The “bacterial growth” value was “notable slow down of the growth curve; also recorded: very conspicuous and instantaneous reduction” with V. natriegens [2]; “nearly ceased” in the assay on V. natriegens [2] (listed as copper). Further, the growth limitation in the assay on caged Pseudomonas sp. [5] (20 mg/L, after 9 hours) is recorded as 56%; in the assay with caged Pseudomonas sp. [5] (assays 1 (doses 0.001-10 mg Cu/L) and 2 (doses 0.02-20 mg Cu/L)) it was < 50%. In addition, the effect on growth result in the assay on caged Pseudomonas sp. [5] (additions under 0.1 mg/L) was “enhancing effect on growth”. The “membrane integrity (LIVE/DEAD BacLight)” value in the assay on V. natriegens [3] (setting [9]) is “damage of membranes”. In the assay with V. natriegens [8], the “cell viability (ProCheck)” value was “affecting cell viability”. Moreover, in the assay on caged Pseudomonas sp. [7], the “DNA as indicator of toxicity” value is on record as “could not detect limitation”. Moreover, the DNA synthesis result in the assay with V. natriegens [4] is “nearly ceased”. In addition, the protein synthesis entry with V. natriegens [4] is “nearly ceased”.

As to mercury [Hg], the growth limitation result in the assay with caged Pseudomonas sp. [5] (2 mg/L, 4 hours) was “Up to 60%”. Also, the “respiration as indicator of toxicity” value in the assay on caged Pseudomonas sp. [6] is given as “most sensitive indicator of toxicity”.

Take `Oc1c(Cl)c(Cl)c(Cl)c(Cl)c1Cl` [PCP]: the CTC/TRB ratio result in the assay on bacterial culture is “loss of respiring cells”.

Regarding `c1ccc2c(c1)ccc1ccccc12` [Phenanthrene, phenanthrene], the respiration result with V. natriegens [1] is “No effect”. Moreover, the “bacterial growth” value in the assay with V. natriegens [2] is “did not affect bacterial growth significantly; also recorded: no major effect”. In addition, the protein synthesis entry in the assay with V. natriegens [4] is on record as “doubled; also recorded: small initial stimulation”. Moreover, the “DNA synthesis rates higher than control” value with V. natriegens [4] (on average) came out at 30%.

Turning to `[Ni]` [Ni, nickel], the growth limitation with caged Pseudomonas sp. [5] (5 mg/L, end of a 9-h assay) was 51%; in the assay with caged Pseudomonas sp. [5] (20 mg/L, after 9 hours), 69%. In the assay on caged Pseudomonas sp. [5] (below 0.5 mg/L), the effect on growth entry was “seemed to favour growth”.

For `NC(=O)N1c2ccccc2C=Cc2ccccc21` [carbamazepine, reference compound], in the assay with bacterial culture, the CTC/TRB ratio entry was “initial positive effect”.

As to `c1cc2ccc3cccc4ccc(c1)c2c34` [Pyrene, pyrene], in the assay with V. natriegens [1] (average), the increase in respiration is given as 14%. Besides, in the assay on V. natriegens [2], the “bacterial growth” value is listed as “no other effect was observed”. The “membrane integrity (LIVE/DEAD BacLight)” value in the assay on V. natriegens [3] (stationary phase) was “loss of membrane integrity”.

In the assay with caged Pseudomonas sp. [5] (2 mg/L, 4 hours), `[Pb]` [lead] returned a growth limitation of 52%. The “respiration as indicator of toxicity” value with caged Pseudomonas sp. [6] was “most sensitive indicator of toxicity”.
